The record followed here is US12190997B2, “Genetically altered LysM receptors with altered agonist specificity and affinity” (Aarhus Universitet, priority 2018, dated 2025).

Assay [1] addresses LjLYS11 ectodomain (Lotus japonicus, UniProt D3KTZ8). The assay is described as follows: BLI binding of LjLYS11 ectodomain to ligands. Conditions: FIG. 15C. On the procedure: LjLYS11 ectodomain production and purification: The LjLYS11 ectodomain (residues 26-234; SEQ ID NO:60) was codon-optimized for insect cell expression (Genscript, Piscataway, USA) and cloned into the pOET4 baculovirus transfer vector (Oxford Expression Technologies). The native LjLYS11 signal peptide was replaced with the gp64 signal peptide (SEQ ID NO:59) to facilitate secretion and a hexa-histidine (6×His; SEQ ID NO:61) tag was added to the C-terminus (LjLYS11-ecto (26-234), N-term gp64, C-term 6His=SEQ ID NO:56). Recombinant baculoviruses were produced in Sf9 cells (Spodoptera frugiperda) using the FlashBac Gold kit (Oxford Expression technologies) according to the manufacturer's instructions with Lipofectin (ThermoFisher Scientific) as a transfection reagent. Protein expression was performed as follows. […]
Biolayer interferometry (BLI): Binding of LjLYS11 ectodomain and domain-swapped versions of LjLYS11 ectodomain to ligands was measured on an Octet RED 96 system (Pall ForteBio). […] Equilibrium dissociation constants derived from the steady-state were determined by applying a non-linear regression (one site, specific binding) to the response at equilibrium plotted against the protein concentration. Kinetic parameters were determined by non-linear regression (association followed by dissociation) on the subtracted data. […]

The subject of assay [2] is HvRLK4 ectodomain. The assay is described as follows: BLI binding of HvRLK4 ectodomain to ligands. Details: species or system Hordeum vulgare. Conditions: FIGS. 16E, 16G-16H. How it is done:
(§1) Expression and purification of ectodomain: The HvRLK10 ectodomain (residues 25-231; SEQ ID NO:66) was codon-optimized for insect cell expression (Genscript, Piscataway, USA) and cloned into the pOET4 baculovirus transfer vector (Oxford Expression Technologies). The native HvRLK10 signal peptide was replaced with the gp64 signal peptide (SEQ ID NO:59) to facilitate secretion and a hexa-histidine (6×HIS; SEQ ID NO:61) tag was added to the C-terminus (HvRLK10-ecto (25-231), N-term gp64, C-term 6His=SEQ ID NO:65). The HvRLK4 ectodomain (residues 27-228; SEQ ID NO:68) was codon-optimized for insect cell expression (Genscript, Piscataway, USA) and cloned into the pOET4 baculovirus transfer vector (Oxford Expression Technologies). […]
(§2) Biolayer interferometry (BLI): Binding of HvRLK10 ectodomain or HvRLK4 ectodomain to ligands was measured on an Octet RED 96 system (Pall ForteBio). […] Equilibrium dissociation constants derived from the steady-state were determined by applying a non-linear regression (one site, specific binding) to the response at equilibrium plotted against the protein concentration. Kinetic parameters were determined by non-linear regression (association followed by dissociation) on the subtracted data.

Assay [3] deals with HvRLK10 ectodomain. Nature of the assay: BLI binding of HvRLK10 ectodomain to ligands. To be noted: FIGS. 16A, 16C-16D. Details: species or system Hordeum vulgare. On the procedure:
as §1, §2

Assay [4] deals with ectodomain where LysM2 from LjLYS11 was replaced with LysM2 from LjNFR5. The assay is described as follows: BLI binding of LjLYS11 ectodomain with LysM2 replaced by LysM2 from LjNFR5. Details: species or system Lotus japonicus. Conditions: FIG. 15D. On the procedure:
Biolayer interferometry (BLI): Binding of LjLYS11 ectodomain and domain-swapped versions of LjLYS11 ectodomain to ligands was measured on an Octet RED 96 system (Pall ForteBio). The ligands used were CO5 chitin oligomer (corresponding to the backbone of S. meliloti LCO-V), M. loti LCO, and S. meliloti LCO. S. meliloti LCO consists of a tetrameric/pentameric N-acetylglucosamine backbone that is O-sulfated on the reducing terminal residue, O-acetylated on the non-reducing terminal residue, and mono-N-acylated by unsaturated C16 acyl groups. M. loti LCO is a pentameric N-acetylglucosamine with a cis-vaccenic acid and a carbamoyl group at the non-reducing terminal residue together with a 2,4-O-acetylfucose at the reducing terminal residue. Biotinylated ligand conjugates were immobilized on streptavidin biosensors (kinetic quality, Pall ForteBio) at a concentration of 125-250 nM for 5 minutes. Data analysis was performed in GraphPad Prism 6 software (GraphPad Software, Inc.). Equilibrium dissociation constants derived from the steady-state were determined by applying a non-linear regression (one site, specific binding) to the response at equilibrium plotted against the protein concentration. Kinetic parameters were determined by non-linear regression (association followed by dissociation) on the subtracted data. […]

Each structure is given as a SMILES string.

Sequence of LjLYS11 ectodomain (D3KTZ8 entry or part of it): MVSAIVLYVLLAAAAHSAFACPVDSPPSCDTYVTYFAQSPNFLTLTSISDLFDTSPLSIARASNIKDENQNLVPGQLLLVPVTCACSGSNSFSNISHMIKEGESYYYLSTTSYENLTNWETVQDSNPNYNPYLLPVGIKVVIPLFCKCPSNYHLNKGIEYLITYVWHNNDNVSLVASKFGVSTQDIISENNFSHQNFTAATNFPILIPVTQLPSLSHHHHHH

Consider `CC(=O)N[C@H]1[C@H](O[C@H]2[C@H](O)[C@@H](NC(C)=O)[C@H](O[C@H]3[C@H](O)[C@@H](NC(C)=O)C(O)O[C@@H]3CO)O[C@@H]2CO)O[C@H](CO)[C@@H](O[C@@H]2O[C@H](CO)[C@@H](O[C@@H]3O[C@H](CO)[C@@H](O)[C@H](O)[C@H]3NC(C)=O)[C@H](O)[C@H]2NC(C)=O)[C@@H]1O` (stereo partly shown) [CO5], for which the binding result was “able to bind” in assay [1], “did not bind” in assay [2] and “did not bind” in assay [3]. In assay [4], the “binding compared with unmodified LjLYS11 ectodomain” value was “loss of ability to bind”.
